In patent publication US12391679B2, “Benzamide-substituted bicyclic imidazo- and pyrazolo-fused -pyridine, -pyrimide, and -pyridazine compounds for treatment of inflammatory diseases” (ONCO3R Therapeutics BV, priority 2019, dated 2025):

Assays:
[1] = system: LPS triggered IL-10 secretion in monocytes; test: Monocytes assay: LPS-triggered IL-10 (ELISA); assay type: cell-based, human; conditions: Homo sapiens, Monocyte, LPS-triggered IL-10 induction, median maximal fold change vs LPS only, read-out: IL-10 FCmax median
In short: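 CD14+ monocytes bead-isolated from human PBMCs, pretreated with compound 1 h at 37 °C (0.2% DMSO), then stimulated with LPS 200 ng/mL for 4 h. Supernatant IL-10 measured by chemiluminescent sandwich ELISA; fold change versus LPS only per concentration, reported as maximal fold change (FCmax).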

SIK3 = target: T1, SIK3 (Homo sapiens, UniProt Q9Y2K2); test: ADP-Glo kinase assay, SIK3; assay type: biochemical
T1 construct: purchased SignalChem S12-11G-100
In short: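 Kinase reactions ran 120 min at room temperature after ATP addition to enzyme-substrate mix. Remaining ATP was depleted (40 min) and ADP converted to ATP for luciferase detection (30 min), signal rising with activity. Final 1% DMSO and 10 μM staurosporine served as negative and positive controls.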

[2] = system: LPS-induced TNFα in monocytes; test: Monocytes assay: LPS-triggered TNFα (ELISA); assay type: cell-based, human; conditions: LPS-triggered TNFα inhibition
In short: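 TNFα secretion was triggered with 200 ng/mL LPS for 4 h in human blood CD14+ monocytes after 1 h compound pretreatment at 37 °C, with 0.2% final DMSO. Supernatants were analysed by streptavidin-HRP/luminol ELISA, and percentage inhibition at each concentration was derived relative to control wells.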

T1 sequence (Q9Y2K2 59-365 limits assumed): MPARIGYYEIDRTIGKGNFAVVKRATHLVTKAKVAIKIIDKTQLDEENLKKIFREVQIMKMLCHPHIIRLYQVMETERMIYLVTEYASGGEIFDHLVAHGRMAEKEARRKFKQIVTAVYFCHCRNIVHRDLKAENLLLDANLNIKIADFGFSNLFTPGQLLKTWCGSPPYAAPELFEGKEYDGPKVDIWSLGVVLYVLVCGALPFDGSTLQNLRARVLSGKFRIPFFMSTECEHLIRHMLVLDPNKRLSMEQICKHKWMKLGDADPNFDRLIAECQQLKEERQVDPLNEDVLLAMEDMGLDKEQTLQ

SMILES | IC50 (SIK3) [nM] | EC50 [2] [nM] | EC50 ([2]; Homo sapiens, Monocyte) [nM] | maximal fold induction [1]
COc1cc(-c2cnc3cc([C@@](C)(C#N)CO)ccn23)cc(OC(F)F)c1C(=O)NC1CC1 (single isomer, unassigned) [Cpd 189, 4-[7-(1-cyano-2-hydroxy-1-methyl-ethyl)imidazo[1,2-a]pyridin-3-yl]-N-cyclopropyl-2-(difluoromethoxy)-6-methoxy-benzamide] | 10 to 100 | 100 to 1000 | – | < 1.5
COc1cc(-c2cnc3cc(C(C)(C)O)ccn23)cc(OC(F)F)c1C(=O)N[C@@H]1C[C@@H]1F [Cpd 211, 2-(difluoromethoxy)-N-[(1R,2S)-2-fluorocyclopropyl]-4-[7-(1-hydroxy-1-methyl-ethyl)imidazo[1,2-a]pyridin-3-yl]-6-methoxy-benzamide] | 0.01 to 10 | – | 100 to 1000 | 1.5 to 4.5
COc1cc(-c2cnn3cc(C4COC4)ccc23)cc(OC(F)F)c1C(=O)NC1CC1 [Cpd 216, N-cyclopropyl-2-(difluoromethoxy)-6-methoxy-4-[6-(oxetan-3-yl)pyrazolo[1,5-a]pyridin-3-yl]benzamide] | 10 to 100 | – | 100 to 1000 | < 1.5
COc1cc(-c2cnn3cc(C4(C#N)CCOCC4)ccc23)cc(OC(F)F)c1C(=O)N[C@@H]1C[C@@H]1F [Cpd 243, 4-[6-(4-cyanotetrahydropyran-4-yl)pyrazolo[1,5-a]pyridin-3-yl]-2-(difluoromethoxy)-N-[(1R,2S)-2-fluorocyclopropyl]-6-methoxy-benzamide] | 0.01 to 10 | – | 100 to 1000 | < 1.5
COc1cc(-c2cnc3cc(C4(C#N)CCOCC4)ccn23)cc(OC(F)F)c1C(=O)NC1CC1 [Cpd 116, 4-[7-(4-cyanotetrahydropyran-4-yl)imidazo[1,2-a]pyridin-3-yl]-N-cyclopropyl-2-(difluoromethoxy)-6-methoxy-benzamide] | 0.01 to 10 | – | 100 to 1000 | 1.5 to 4.5

Further lines, with some results ahead:

IC50 (SIK3) [nM] | EC50 [2] [nM] | EC50 ([2]; Homo sapiens, Monocyte) [nM] | SMILES | maximal fold induction [1]
10 to 100 | – | 100 to 1000 | CCC(C)(C#N)c1ccn2c(-c3cc(OC)c(C(=O)NC4CC4)c(OC(F)F)c3)cnc2c1 (stereo not drawn) [Cpd 27, 4-[7-(1-cyano-1-methyl-propyl)imidazo[1,2-a]pyridin-3-yl]-N-cyclopropyl-2-(difluoromethoxy)-6-methoxy-benzamide] | < 1.5
0.01 to 10 | – | 100 to 1000 | COc1cc(-c2cnc3cc(C(F)(F)CO)ccn23)cc(OC(F)F)c1C(=O)NC1CC1 [Cpd 136, N-cyclopropyl-4-[7-(1,1-difluoro-2-hydroxy-ethyl)imidazo[1,2-a]pyridin-3-yl]-2-(difluoromethoxy)-6-methoxy-benzamide] | 1.5 to 4.5
0.01 to 10 | – | 100 to 1000 | COc1cc(-c2cnc3cc(C(C)(C)C#N)ccn23)cc(OC(F)F)c1C(=O)N1CC(C#N)C1 [Cpd 77, 1-[4-[7-(1-cyano-1-methyl-ethyl)imidazo[1,2-a]pyridin-3-yl]-2-(difluoromethoxy)-6-methoxy-benzoyl]azetidine-3-carbonitrile] | 1.5 to 4.5
10 to 100 | – | 100 to 1000 | COc1cc(-c2cnn3cc(C(C)(C)C#N)ccc23)cc(OC)c1C(=O)N[C@@H]1C[C@@H]1F [Cpd 245, 4-[6-(1-cyano-1-methyl-ethyl)pyrazolo[1,5-a]pyridin-3-yl]-N-[(1R,2S)-2-fluorocyclopropyl]-2,6-dimethoxy-benzamide] | < 1.5
0.01 to 10 | – | 100 to 1000 | COc1cc(-c2cnc3cc(C4COC4)ccn23)cc(OC(F)F)c1C(=O)N[C@@H]1C[C@@H]1F [Cpd 206, 2-(difluoromethoxy)-N-[(1R,2S)-2-fluorocyclopropyl]-6-methoxy-4-[7-(oxetan-3-yl)imidazo[1,2-a]pyridin-3-yl]benzamide] | 1.5 to 4.5
